Results taken from patent publication US4533654A, “Urotensin peptides” (The Salk Institute For Biological Studies, priority 1984, dated 1985).
Where two headings read alike, the source gives them in different places.

How the values were obtained:
[1] = system: cultured rat pituitary cells; assay: Secretion of ACTH and β-endorphin by cultured rat pituitary cells; type: cell-based; details: for stimulation of the secretion of ACTH and β-endorphin: in vitro
Method: (§1) The urotensin peptides from Example II and III are examined for effects on the secretion of ACTH and β-endorphin in vitro and also examined in vivo. […] UI activity of the peptides was measured by the isolated rat hind limb assay, Lederis, K. et al. "Effects and Assay of Urotensin I on the Perfused Hind Limb of the Rat." Gen. Comp. Endocrinol., 24:10-16, 1974. In vivo hypotensive activity of extracted peptides was measured in anaesthetized rats, Lederis, K. and Medakovic, M. "Pharmacological Observations on the Hypotensive Action of Extracts of Teleost Fish Urophyses (Urotensin I) in the Rat." Br. J. Pharmacol. 51:315-324, 1974, and in anaesthetized dogs, MacCannell and Lederis, "Dilatation of the Mesenteric Vascular Bed of the Dog Produced by a Peptide, Urotensin I." J. Pharm. Exp. Ther. 203:38-46, 1977.

[2] = system: ACTH and β-END-LI secretion; assay: ACTH and β-END-LI secretion in vivo in several rat preparations
Method: as §1

mesenteric vascular bed [3] = assay: Blood pressure and mesenteric vasodilatation in the anaesthetized dog; type: in vivo; details: for potency of synthetic peptide versus extracted and purified peptide: anaesthetized dog in vivo; for dilatation of vascular beds other than mesenteric / effect on blood pressure: dog; for effect on blood pressure: appears due solely to dilatation of the mesenteric vascular bed; for accompanying decrease in blood pressure / increase in mesenteric flow: pentobarbital-anaesthetized dog, doses of 0.1-0.5 μg
Method: as §1
(§2) In the pentobarbital-anaesthetized dog, the threshold dose of UI for mesenteric vasodilatation, when given close arterially into the cephalic mesenteric A, is between 0.001 and 0.01 μg for both carp UI (1-41) and for the 4-41 fragment of carp UI. Doses of 0.1-0.5 μg of both peptides produce a 50-150% increase in mesenteric flow; accompanying changes in blood pressure are very modest (about 10% decrease). […] Comp. Endocrinol. 45:446-452, 1981.

mesenteric vascular bed [4] = assay: Blood pressure and vascular dilatation in the monkey; type: in vivo; details: for effect on blood pressure: appears due solely to dilatation of the mesenteric vascular bed
blood pressure [5] = assay: In vivo hypotensive activity in anaesthetized rats; details: rat; vascular dilatation appears less selective
Method: as §1

teleost fish pituitaries = assay: Secretion of ACTH by teleost fish pituitaries
Method: as §1

isolated rat hind limb = assay: Isolated rat hind limb assay (UI activity)
Method: as §1, §2

[6] = system: isolated mesenteric artery strips; assay: Isolated mesenteric artery strips of the rat
[7] = Comparison of the two extracted and the two synthetic carp peptides (assay not specified); details: synthetic versus extracted peptide
Method: as §2

blood pressure [8] = assay: Lowering of blood pressure (summary statement, species not stated); type: in vivo
[9] = Biological activity (test not specified)
blood pressure [10] = details: mammals; reported in the literature; cited from earlier work
[11] = system: secretion of ACTH and β-endorphin; details: reported in the literature; cited from earlier work

Compound | potency to stimulate ACTH and β-endorphin secretion relative to amunine (CRF) [1] | potency of synthetic peptide versus extracted and purified peptide (mesenteric vascular bed [3]) | dilatation of vascular beds other than mesenteric (mesenteric vascular bed [3]) | effect on blood pressure (mesenteric vascular bed [3]) | accompanying decrease in blood pressure (mesenteric vascular bed [3]) | increase in mesenteric flow (mesenteric vascular bed [3]) | dilatation of vascular beds other than mesenteric (mesenteric vascular bed [4]) | effect on blood pressure (mesenteric vascular bed [4]) | effect on blood pressure (blood pressure [5]) | potency relative to amunine in stimulating the secretion of ACTH (teleost fish pituitaries) | potency of synthetic peptide versus extracted and purified peptide (isolated rat hind limb) | potency of synthetic peptide versus extracted and purified peptide [6] | activity of synthetic peptide as % of the activity of the respective extracted carp UI peptide [7] [%] | other results
H-NDDPPISIDLTFHLLRNMIEMARNENQREQAGLNRKYLDEV-NH2 [carp UI (1-41)] | comparable to amunine (CRF) | equipotent with the extracted and purified peptides | neither peptide dilates other vascular beds | modest but sustained depression of the blood pressure | about 10% | 50-150% | neither peptide dilates other vascular beds | modest but sustained depression of the blood pressure | more marked fall in blood pressure | several times more potent than amunine | equipotent with the extracted and purified peptides | equipotent with the extracted and purified peptides | 119±19 | stimulation of the secretion of ACTH and β-endorphin ([1]; listed as UI): stimulate ACTH and β-endorphin activities in vitro; stimulation of the secretion of ACTH and β-endorphin ([1]; listed as urotensin I): high potency; stimulation of ACTH and β-END-LI secretion in vivo ([2]; listed as UI): stimulate ACTH and β-endorphin activities in vitro and in vivo; stimulation of ACTH and β-END-LI secretion in vivo ([2]; listed as urotensin I): stimulate ACTH and β-END-LI secretion in vivo; lowering of blood pressure (blood pressure [8]): lower blood pressure for an extended time period
H-PPISIDLTFHLLRNMIEMARNENQREQAGLNRKYLDEV-NH2 [UI 4-41] | comparable to amunine (CRF) | equipotent with the extracted and purified peptides | neither peptide dilates other vascular beds | modest but sustained depression of the blood pressure | about 10% | 50-150% | neither peptide dilates other vascular beds | modest but sustained depression of the blood pressure | more marked fall in blood pressure | several times more potent than amunine | equipotent with the extracted and purified peptides | equipotent with the extracted and purified peptides | 123±58 | stimulation of the secretion of ACTH and β-endorphin [1]: high potency; stimulation of ACTH and β-END-LI secretion in vivo [2]: stimulate ACTH and β-END-LI secretion in vivo; biological activity [9]: substantially the same biological activity as the 41-residue polypeptide
CC[C@H](C)[C@H](NC(=O)[C@@H](NC(=O)[C@H](CC(=O)O)NC(=O)[C@H](CC(C)C)NC(=O)[C@H](CC(C)C)NC(=O)[C@H](CC(C)C)NC(=O)[C@H](CCCNC(=N)N)NC(=O)[C@H](CC(N)=O)NC(=O)[C@H](CC(N)=O)NC(=O)[C@H](C)NC(=O)[C@H](C)NC(=O)[C@H](CCC(N)=O)NC(=O)[C@H](CCC(N)=O)NC(=O)[C@H](CCCCN)NC(=O)[C@H](CCC(=O)O)NC(=O)[C@H](CCCCN)NC(=O)[C@H](CCC(=O)O)NC(=O)[C@H](CCC(N)=O)NC(=O)[C@H](CCCCN)NC(=O)[C@H](CCC(=O)O)NC(=O)[C@@H](NC(=O)[C@H](CCC(=O)O)NC(=O)[C@@H](NC(=O)[C@H](CCSC)NC(=O)[C@H](CCCCN)NC(=O)[C@H](CCCNC(=N)N)NC(=O)[C@H](CC(C)C)NC(=O)[C@H](CC(C)C)NC(=O)[C@H](CCC(=O)O)NC(=O)[C@H](CC(C)C)NC(=O)[C@H](CO)NC(=O)[C@H](CC(C)C)NC(=O)[C@H](CC(=O)O)NC(=O)[C@@H](NC(=O)[C@H](CO)NC(=O)[C@@H](NC(=O)[C@@H]1CCCN1C(=O)[C@@H]1CCCN1C(=O)CNC(=O)[C@@H]1CCC(=O)N1)[C@@H](C)CC)[C@@H](C)CC)[C@@H](C)CC)[C@@H](C)CC)[C@@H](C)O)C(N)=O [Sauvagine] | – | – | – | – | – | – | – | – | – | – | – | – | – | lowering blood pressure (blood pressure [10]): biological activity in lowering blood pressure in mammals; stimulating the secretion of ACTH and β-endorphin [11]: stimulating the secretion of ACTH and β-endorphin
